Experimental data from US5061794A, “Cephalosporin derivatives, and antibacterial agents” (priority 1986, dated 1991).
In brackets after ≈: the same amount, converted by molar mass. Read-outs that look alike come from different tables or passages of the source.

What was measured:
Ps. cepacia 23 = assay: in vitro antibacterial activity, agar plate dilution method (MIC); type: cell-based, Pseudomonas cepacia; details: Burkholderia cepacia, 16 h; Ps. cepacia 23; 10^6 CFU/ml; read-out: Minimum Inhibitory Concentration (MIC)
Procedure: (§1) The in vitro antibacterial activities of the compounds of the present invention against various microorganisms, were measured by the following agar plate dilution method. One platinum loopfull of each test microorganism incubated overnight in Mueller Hinton broth, was inoculated to Mueller Hinton agar (inoculum size: 10^6 CFU/ml). Such culture media containing various antibiotics in various concentrations were prepared. After incubation at 37° C. for 16 hours, the minimum inhibitory concentrations (MIC: μg/ml) were measured.

Ps. aeruginosa AK 109 = assay: as above; type: cell-based, Pseudomonas aeruginosa; details: Pseudomonas aeruginosa, AK109, 16 h, read-out: Minimum Inhibitory Concentration (MIC)
Procedure: as §1

Ps. aeruginosa IF03445 = assay: as above; type: cell-based, Pseudomonas aeruginosa; details: Pseudomonas aeruginosa, 16 h; Ps. aeruginosa IF03445; 10^6 CFU/ml; read-out: Minimum Inhibitory Concentration (MIC)
Procedure: as §1

K. pneumoniae PCI-602 = assay: as above; type: cell-based; details: Klebsiella pneumoniae, PCI602, 16 h, 10^6 CFU/ml
Procedure: as §1

E. cloacae Nek 39 = assay: as above; type: cell-based; details: Enterobacter cloacae, NEK39, 16 h, 10^6 CFU/ml
Procedure: as §1

S. marcescens IAM 1184 = assay: as above; type: cell-based; details: Serratia marcescens, IAM1184, 16 h, read-out: Minimum Inhibitory Concentration (MIC)
Procedure: as §1

E. cloacae 963 = assay: as above; type: cell-based; details: 10^6 CFU/ml
Procedure: as §1

M. morganii GN5407 = assay: as above; type: cell-based; details: Morganella morganii, 10^6 CFU/ml
Procedure: as §1

S. aureus 209P NIHJ-JC1 = assay: as above; type: cell-based; details: Staphylococcus aureus, 16 h, 10^6 CFU/ml, 37° C., 16 hours
Procedure: as §1

P. vulgaris HX-19 = assay: as above; type: cell-based; details: Proteus vulgaris, HX19, 16 h, P. vulgaris HX-19; 10^6 CFU/ml; read-out: Minimum Inhibitory Concentration (MIC)
Procedure: as §1

S. marcescens No. 16-2 = assay: as above; type: cell-based; details: Serratia marcescens, NO.162, 16 h
Procedure: as §1

E. coli CSH2 (RK1) = assay: microbe, parasite or virus in culture; type: cell-based; details: Escherichia coli, 16 h, read-out: Minimum Inhibitory Concentration (MIC), *E. coli CSH2 (RK1), lactamase-producing strain; 10^6 CFU/ml
Procedure: as §1

Ps. aeruginosa AKR17 = assay: in vitro antibacterial activity, agar plate dilution method (MIC); type: cell-based, Pseudomonas aeruginosa; details: Pseudomonas aeruginosa, 16 h; Ps. aeruginosa AKR17; 10^6 CFU/ml; read-out: Minimum Inhibitory Concentration (MIC)
Procedure: as §1

K. pneumoniae No. 42 = assay: as above; type: cell-based; details: Klebsiella pneumoniae, 10^6 CFU/ml
Procedure: as §1

K. oxytoca GN10650 = assay: as above; type: cell-based; details: Klebsiella oxytoca, 10^6 CFU/ml
Procedure: as §1

P. vulgaris No. 33 = assay: as above; type: cell-based; details: Proteus vulgaris, NO.33, 16 h, read-out: Minimum Inhibitory Concentration (MIC), *P. vulgaris No. 33, lactamase-producing strain; 10^6 CFU/ml
Procedure: as §1

E. coli NIHJ JC2 = assay: as above; type: cell-based; details: Escherichia coli
Procedure: as §1

E. coli GN5482 = assay: as above; type: cell-based; details: Escherichia coli
Procedure: as §1

E. coli CSH(RE45) = assay: microbe, parasite or virus in culture; type: cell-based; details: Escherichia coli, 16 h, read-out: Minimum Inhibitory Concentration (MIC), *E. coli CSH(RE45), lactamase-producing strain; 10^6 CFU/ml
Procedure: as §1

A. calcoaceticus No. 4 = assay: in vitro antibacterial activity, agar plate dilution method (MIC); type: cell-based, Acinetobacter calcoaceticus; details: Acinetobacter calcoaceticus, NO.4, 16 h, 10^6 CFU/ml
Procedure: as §1

[1] = Ps. aeruginosa AK 109, 10^6 CFU/ml
[2] = *E. cloacae Nek 39, lactamase-producing strain, read-out: Minimum Inhibitory Concentration (MIC)
[3] = Enterobacter cloacae, 16 h, E. cloacae 963, read-out: Minimum Inhibitory Concentration (MIC)
[4] = S. aureus 209P NIHJ-JC1, read-out: Minimum Inhibitory Concentration (MIC)
[5] = *S. marcescens No. 16-2, lactamase-producing strain, 10^6 CFU/ml, read-out: Minimum Inhibitory Concentration (MIC)
[6] = NO.42, 16 h, read-out: Minimum Inhibitory Concentration (MIC), *K. pneumoniae No. 42, lactamase-producing strain
[7] = read-out: Minimum Inhibitory Concentration (MIC), K. pneumoniae PCI-602
[8] = Enterobacter cloacae, 963, 16 h, read-out: Minimum Inhibitory Concentration (MIC), E. cloacae 963
[9] = GN5407, 16 h, read-out: Minimum Inhibitory Concentration (MIC), *M. morganii GN5407, lactamase-producing strain
[10] = NIHJJC2, 16 h, read-out: Minimum Inhibitory Concentration (MIC), E. coli NIHJ JC2, 10^6 CFU/ml, 37° C.
[11] = A. calcoaceticus No. 4, read-out: Minimum Inhibitory Concentration (MIC)
[12] = read-out: Minimum Inhibitory Concentration (MIC), *E. cloacae Nek 39, lactamase-producing strain
[13] = 16 h, *K. oxytoca GN10650, lactamase-producing strain, read-out: Minimum Inhibitory Concentration (MIC)

CO/N=C(\C(=O)N[C@@H]1C(=O)N2C(C(=O)O)=C(COC(C)=O)CS[C@H]12)c1csc(N)n1 [cefotaxime, reference compound]
MIC (Ps. cepacia 23): 6.25 µg/mL (≈ 13.7 µM) | MIC (Ps. aeruginosa AK 109; [1]): 12.5 µg/mL (≈ 27.4 µM) | MIC (Ps. aeruginosa IF03445): 2.5 µg/mL (≈ 5.49 µM) | MIC (K. pneumoniae PCI-602; K. pneumoniae PCI-602, read-out: Minimum Inhibitory Concentration (MIC)): < 0.006 µg/mL | MIC (E. cloacae Nek 39; [2]): 1.56 µg/mL (≈ 3.43 µM) | MIC (S. marcescens IAM 1184): 0.0125 µg/mL (≈ 0.0274 µM) | MIC (E. cloacae 963; [3]): 0.05 µg/mL (≈ 0.11 µM) | MIC (M. morganii GN5407; 16 h, *M. morganii GN5407, lactamase-producing strain, read-out: Minimum Inhibitory Concentration (MIC)): 0.05 µg/mL (≈ 0.11 µM) | MIC (S. aureus 209P NIHJ-JC1; [4]): 1.56 µg/mL (≈ 3.43 µM) | MIC (P. vulgaris HX-19): < 0.006 µg/mL | MIC (S. marcescens No. 16-2; [5]): 6.25 µg/mL (≈ 13.7 µM) | MIC (E. coli CSH2 (RK1)): 0.0125 µg/mL (≈ 0.0274 µM)

CC(C)(O/N=C(\C(=O)N[C@@H]1C(=O)N2C(C(=O)O)=C(CSc3nnc(-c4ccccc4)o3)CS[C@H]12)c1csc(N)n1)C(=O)O [compound 3, disodium 7β-[2-(2-aminothiazol-4-yl)-2-(1-carboxylate-1-methylethoxyimino)acetamido]3-(5-phenyl-1,3,4-oxadiazol-2-yl) thiomethyl-3-cephem-4-carboxylate, reference compound]
MIC (Ps. aeruginosa AKR17): > 100 µg/mL | MIC (Ps. aeruginosa AK 109; [1]): 50 µg/mL | MIC (Ps. aeruginosa IF03445): 50 µg/mL | MIC (K. pneumoniae No. 42; [6]): 3.12 µg/mL | MIC (K. pneumoniae PCI-602; [7]): 0.1 µg/mL | MIC (E. cloacae Nek 39; [2]): 25 µg/mL | MIC (S. marcescens IAM 1184): 1.56 µg/mL | MIC (K. oxytoca GN10650; GN10650, 16 h, read-out: Minimum Inhibitory Concentration (MIC), *K. oxytoca GN10650, lactamase-producing strain): 3.12 µg/mL | MIC (E. cloacae 963; [8]): 6.25 µg/mL | MIC (M. morganii GN5407; [9]): 1.56 µg/mL | MIC (S. aureus 209P NIHJ-JC1; read-out: Minimum Inhibitory Concentration (MIC), S. aureus 209P NIHJ-JC1): 6.25 µg/mL | MIC (P. vulgaris HX-19): < 0.006 µg/mL | MIC (P. vulgaris No. 33): 0.39 µg/mL | MIC (S. marcescens No. 16-2; [5]): 25 µg/mL | MIC (E. coli NIHJ JC2; [10]): 3.12 µg/mL | MIC (E. coli GN5482; GN5482, 16 h, read-out: Minimum Inhibitory Concentration (MIC)): 3.12 µg/mL | MIC (E. coli CSH2 (RK1)): 1.56 µg/mL | MIC (E. coli CSH(RE45)): 1.56 µg/mL | MIC (A. calcoaceticus No. 4; [11]): 100 µg/mL

CC(C)(O/N=C(\C(=O)N[C@@H]1C(=O)N2C(C(=O)O)=C(CSc3nnc(-c4ccc(O)cc4)o3)CS[C@H]12)c1csc(N)n1)C(=O)O [compound 4, disodium 7β-[2-(2-aminothiazol-4-yl)-2-(1-carboxylate-1-methylethoxyimino)acetamido]-3-[5-(4-hydroxyphenyl)-1,3,4-oxadiazol-2-yl]thiomethyl-3-cephem-4-carboxylate, reference compound]
MIC (Ps. aeruginosa AKR17): > 100 µg/mL | MIC (Ps. aeruginosa AK 109): 12.5 µg/mL | MIC (Ps. aeruginosa IF03445): 25 µg/mL | MIC (K. pneumoniae No. 42; 16 h, *K. pneumoniae No. 42, lactamase-producing strain, read-out: Minimum Inhibitory Concentration (MIC)): 1.56 µg/mL | MIC (K. pneumoniae PCI-602; [7]): 0.1 µg/mL | MIC (E. cloacae Nek 39; [12]): 12.5 µg/mL | MIC (S. marcescens IAM 1184): 0.78 µg/mL | MIC (K. oxytoca GN10650; [13]): 1.56 µg/mL | MIC (E. cloacae 963; [3]): 3.12 µg/mL | MIC (M. morganii GN5407; [9]): 0.78 µg/mL | MIC (S. aureus 209P NIHJ-JC1; [4]): 6.25 µg/mL | MIC (P. vulgaris HX-19): 0.1 µg/mL | MIC (P. vulgaris No. 33): 0.2 µg/mL | MIC (S. marcescens No. 16-2; read-out: Minimum Inhibitory Concentration (MIC)): 12.5 µg/mL | MIC (E. coli NIHJ JC2; NIHJJC2, E. coli NIHJ JC2, 10^6 CFU/ml, 37° C., 16 hours, read-out: Minimum Inhibitory Concentration (MIC)): 3.12 µg/mL | MIC (E. coli GN5482; 16 h, *E. coli GN5482, lactamase-producing strain, 10^6 CFU/ml, read-out: Minimum Inhibitory Concentration (MIC)): 1.56 µg/mL | MIC (E. coli CSH2 (RK1)): 0.78 µg/mL | MIC (E. coli CSH(RE45)): 0.78 µg/mL | MIC (A. calcoaceticus No. 4; [11]): 25 µg/mL

CON=C(C(=O)NC1C(=O)N2C(C(=O)O)=C(CSc3nc(-c4ccc(OC(C)=O)c(OC(C)=O)c4)cs3)CSC12)c1csc(N)n1 (stereo not drawn) [compound 40, sodium 3-[4-(3,4-diacetoxyphenyl)-thiazol-2-yl]thiomethyl-7β-[2-(2-aminothiazol-4-yl)-2-methoxviminoacetamido]-3-cephem-4-carboxvlate]
MIC (Ps. aeruginosa AKR17): < 100 µg/mL | MIC (Ps. aeruginosa AK 109): 3.12 µg/mL | MIC (Ps. aeruginosa IF03445): 1.56 µg/mL | MIC (K. pneumoniae No. 42; [6]): 0.2 µg/mL | MIC (K. pneumoniae PCI-602; [7]): < 0.006 µg/mL | MIC (E. cloacae Nek 39; [12]): 0.39 µg/mL | MIC (S. marcescens IAM 1184; S. marcescens IAM 1184, 10^6 CFU/ml): 0.1 µg/mL | MIC (K. oxytoca GN10650; [13]): 1.56 µg/mL | MIC (E. cloacae 963; [8]): 0.05 µg/mL | MIC (M. morganii GN5407; [9]): 0.1 µg/mL | MIC (S. aureus 209P NIHJ-JC1; [4]): 1.56 µg/mL | MIC (P. vulgaris HX-19): 0.0125 µg/mL | MIC (P. vulgaris No. 33): 0.1 µg/mL | MIC (S. marcescens No. 16-2; read-out: Minimum Inhibitory Concentration (MIC), *S. marcescens No. 16-2, lactamase-producing strain, 10^6 CFU/ml): 6.25 µg/mL | MIC (E. coli NIHJ JC2; [10]): 0.2 µg/mL | MIC (E. coli GN5482; GN5482, 16 h, read-out: Minimum Inhibitory Concentration (MIC), *E. coli GN5482, lactamase-producing strain, 10^6 CFU/ml): 0.78 µg/mL | MIC (E. coli CSH2 (RK1)): 0.025 µg/mL | MIC (E. coli CSH(RE45)): 0.2 µg/mL | MIC (A. calcoaceticus No. 4; read-out: Minimum Inhibitory Concentration (MIC), A. calcoaceticus No. 4): 0.78 µg/mL
